A word on the IC50: it is the concentration needed to halve the response being measured. One may read the melting point as the temperature of the solid-liquid transition.

The target of one series is T1, CCR5 (Homo sapiens, UniProt P51681).
T1 construct: host or cells: CEM-NKr-CCR5-Luc cells, co-cultured with Hela-R5 cells expressing gp160 and HIV-1 Tat
The experiment in a line: CCR5-mediated cell-cell fusion (CCF) assay. In kind it is cell-based. The note with it: Hela-R5 cells co-cultured with CEM-NKr-CCR5-Luc cells, 24 hrs, luciferase readout. The procedure: CCF assay was performed as described before (C. Ji, J. Zhang, N. Cammack and S. Sankuratri, J. Biomol. Screen. 2006 11(6):652-663). Hela-R5 cells (express gp160 from R5-tropic virus and HIV-1 Tat) were plated in 384 well white culture plates (BD Bioscience, Palo Alto, Calif.) at 7.5×10^3 cells per well in phenol red-free Dulbecco's Modified Eagle Medium (DMEM) supplemented with 10% FBS, 1× Pen-Strep, 300 μg/mL G418, 100 μg/mL hygromycin, and 1 μg/mL Doxycycline (Dox) (BD Bioscience, Palo Alto, Calif.), using Multimek (Beckman, Fullerton, Calif.) and incubated at 37° C. overnight to induce the expression of gp160. Ten μL diluted compounds in medium containing 5% DMSO were added to the cells, followed by the addition of CEM-NKr-CCR5-Luc (obtained from NIH AIDS Research & Reference Reagents Program) that expresses CD4 and CCR5 and carries a […] long terminal repeat (LTR)-driven luciferase reporter gene at 1.5×10^4 cells/15 μL/well and incubated for 24 hrs. At the end of co-culture, 15 μL of Steady-Glo luciferase substrate was added into each well, and the cultures were sealed and gently shaken for 45 min. The luciferase activity were measured for 10 sec per well as luminescence by using 16-channel TopCount NXT (PerkinElmer, Shelton, Conn.) with 10 min dark adaptation and the readout is count per second (CPS). For the drug interaction experiments, small molecule compounds or antibodies were serially diluted in serum-free and phenol red-free RPMI containing 5% DMSO (CalBiochem, La Jolla, Calif.) and 1× Pen-Strep5 μL each of the two diluted compound or mAb to be tested for drug-drug interactions were added to the Hela-R5 cells right before the addition of target cells. Representative results are compiled in TABLE II

T1 sequence (P51681 whole entry): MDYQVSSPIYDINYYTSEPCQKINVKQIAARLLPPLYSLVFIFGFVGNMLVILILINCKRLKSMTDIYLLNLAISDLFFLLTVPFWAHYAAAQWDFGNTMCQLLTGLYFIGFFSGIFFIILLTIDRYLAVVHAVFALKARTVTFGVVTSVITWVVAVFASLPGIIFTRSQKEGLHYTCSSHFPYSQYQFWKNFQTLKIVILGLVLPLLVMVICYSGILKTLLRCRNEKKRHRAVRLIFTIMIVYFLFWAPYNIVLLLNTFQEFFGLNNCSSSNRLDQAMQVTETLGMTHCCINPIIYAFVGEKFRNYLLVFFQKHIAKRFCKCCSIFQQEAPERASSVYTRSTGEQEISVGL

`CCCCC1C(=O)N(CC2CCN(C(=O)OC)CC2)CCC12CCN(C1(C)CCN(C(=O)c3c(C)ncnc3C)CC1)CC2` (stereo not shown) [I-19, 4-{1-Butyl-9-[1-(4,6-dimethyl-pyrimidine-5-carbonyl)-4-methyl-piperidin-4-yl]-2-oxo-3,9-diaza-spiro[5.5]undec-3-ylmethyl}-piperidine-1-carboxylic acid methyl ester]: the IC50 against CCR5 was 7.8 nM.

For `CCCCC1CN(S(=O)(=O)C2CCN(C(C)=O)CC2)CCC12CCN(C1(C)CCN(C(=O)c3c(C)ncnc3C)CC1)CC2` (stereo not shown) [I-25], the melting point lay in the range of 113 to 120 °C. Also, on CCR5, the IC50 is 9.8 nM.

As to `CCCCC1C(=O)N(CC2CCOCC2)CCC12CCN(C1(C)CCN(C(=O)c3c(C)ncnc3C)CC1)CC2` (stereo not shown) [I-3, 1-Butyl-9-[1-(4,6-dimethyl-pyrimidine-5-carbonyl)-4-methyl-piperidin-4-yl]-3-(tetrahydro-pyran-4-ylmethyl)-3,9-diaza-spiro[5.5]undecan-2-one], on CCR5, the IC50 turned out to be 9.5 nM. In other words, the single-digit nanomolar range.
